What was measured:
[1] = system: CHO cells producing ustekinumab; experiment: Cation exchange chromatography of acidic, main and basic species of ustekinumab from CHO cells cultured with citrulline; assay type: cell-based, Chinese hamster
Description: (§1) The stirred tank reactors (STRs) were inoculated with the cell line C20 or with the cell line C69 in pre-heated production medium (PolCHO-P, available from GE healthcare, Catalogue Number G3258.3050), at a target density of 1.0*10^6 viable cells (vc) mL^−1. From day 3 on, 4.2% (v/v) of feed A (available from GE healthcare, Catalogue Number G3259.3010) per day was added at a continuous rate over 24 hours (equivalent to 2.9 g glucose L^−1 day^−1). If required, a D-glucose solution was used to increase glucose concentration in the broth to 4 g L^−1. In addition, 0.42% (v/v) of feed B (available from GE healthcare, Catalogue Number G3260.0001) was added every day as a bolus. For cell line C20 different concentrations of citrulline (5 g/l, 8 g/l and 12 g/l) were added to the medium and to feed A. For cell line C69 10 g/l citrulline in combination with 40 mM sucrose were added to the medium and to feed A.
Additional samples of approximately 30 mL were collected on days 6, 10 and 14, centrifuged and stored in −80° C. for product quality analysis. […]
(§2) For data evaluation the Waters Empower 3 software was used. The sample composition was determined by detecting peaks based on their retention time and the relative proportions of each peak were calculated from the peak areas. […]

[2] = system: CHO cells producing natalizumab; experiment: Cation exchange chromatography of acidic and basic species of natalizumab from CHO cells cultured with citrulline; assay type: cell-based, Chinese hamster; conditions: increasing concentrations of citrulline (8, 12 g/l), 14 days
Description: Cell lineC4 expressing natalizumab was cultured in 15 ml AMBR microbioreactors. Dissolved oxygen tension (DOT) was controlled at 40% and the temperature maintained at 36.8° C. during the first 4 days with a temperature shift to 33° C. on day 5 for the rest of the cultivation time. The targeted viable cell concentration at inoculation was 1.0×10^6±0.1 viable cells mL^−1. The post inoculation volume of the production stage bioreactors was set to 15 mL in the microbioreactors of the AMBR system. The pH set point was 7.0±0.1. The basal medium was PolCHO-P CD (available from GE healthcare). From day 3 on, 4.2% (v/v) of PolCHO feed A (available from GE healthcare) per day was added as a bolus. If required, a D-glucose solution was used to increase glucose concentration in the broth to 4 g L^−1. In addition, 0.42% (v/v) of PolCHO feed B (available from GE healthcare) was added every day as a bolus. […]
The separation was carried out by Cation Exchange High Performance Liquid Chromatography on the UPLC H-Class Bio System using UV detection under Empower™ Software control. […] The column temperature was 40° C. and elution was monitored at 220 nm.
as §2

[3] = system: CHO cells producing ustekinumab; experiment: Cell diameter by LUNA cell counter; assay type: cell-based, Chinese hamster; conditions: citrulline added, vs control without citrulline (FIG. 2)
Description: as §1
b) In another set of experiments cell line C20 expressing ustekinumab was selected. This cell line was thawed and cultured in 25 mL shake flasks (SFs) containing PolCHO-P CD (GE Healthcare) medium with methotrexate and geneticin. […] Every day before feeding, glucose concentration was measured. […]
The viable cell concentration, viability and cell size were determined using a LUNA™ cell counter with the following protocol: […]

[4] = system: CHO cells producing ustekinumab; experiment: Specific production rate (Qp) for ustekinumab; assay type: cell-based, Chinese hamster; conditions: citrulline added, vs control without citrulline (FIG. 3)
Description: as §1, with “For cell line C20 different concentrations of citrulline (5 g/l, 8 g/l and 12 g/l) were added to the medium and to feed A. For cell line C69 10 g/l citrulline in combination with 40 mM sucrose were added to the medium and to feed A.” left out
b) In another set of experiments cell line C20 expressing ustekinumab was selected. […] Every day before feeding, glucose concentration was measured. […]
(§3) The Octet system performs label-free quantitation of antibodies, proteins, peptides, DNA and other biomolecules and provides kinetic characterization of biomolecular binding interactions. […] The binding rates of the test samples are measured and interpolated from a standard curve generated from a similar or equivalent protein to determine the concentration of the protein. […]

[5] = system: CHO cells producing omalizumab; experiment: Specific production rate (Qp) for omalizumab; assay type: cell-based, Chinese hamster; conditions: citrulline added, vs control without citrulline (FIG. 8)
Description: CHO cell line 230×846 expressing the anti-IgE antibody omalizumab was selected for this experiment. The cell line was thawed and cultured in 25 mL shake flasks (SFs) containing PowerCHO-2 CD medium (Lonza) with 4 mM L-glutamine and 1% (v/v) Fe-citrate solution. Subsequently, the cells were expanded in SFs with increasing volume as seed train. 12 SFs were inoculated at a concentration of 0.5·10^6 vc mL^−1. The SFs were inoculated in 25 mL PowerCHO-2-CD medium containing L-glutamine and Fe-citrate and placed on a shaking plateau in an incubator at 37° C. On the day of inoculation, 2% (v/v) of BC feed and 0.2% (v/v) of cys/tyr feed was given. The glucose concentration was measured every day before feeding. From day 3 on, feeding was done based on glucose consumption of the previous day, aiming for a glucose concentration of 3.5 g/L. Different concentrations of citrulline were added to the medium and BC feed.
as §3

[6] = system: CHO cells producing ustekinumab; experiment: Rapifluor-MS released N-glycan analysis of ustekinumab; assay type: cell-based, Chinese hamster; conditions: 5 g/l and 8 g/l citrulline, 12 or 14 days, vs control
Description: The shake flasks were inoculated in 25 mL Actipro medium (available from GE healthcare, Catalogue number SH31039.01) and placed on a shaking plateau in an incubator at 37° C. On the day of inoculation, 2% (v/v) of Cell boost 7A (available from GE healthcare, Catalogue number SH31026.02) and 0.2% (v/v) of Cell boost 7B (available from GE healthcare, Catalogue number SH31027.01) was given. From day 3 on, a flat feed was given of 4% (v/v) of Cell boost per day. Every day before feeding, glucose concentration was measured. If required, a D-glucose solution was used to increase glucose concentration in the broth to 4 g L^−1, before feeding. In addition, 0.4% (v/v) of Cell boost 7B was added every day as a bolus. Different concentrations of citrulline (5 g/l and 8 g/l) were added to the medium and to Cell boost 7A. At day 5 after inoculating the cells into the cell culture medium the temperature of the cell culture was reduced to 31° C.±0.2° C.
The N-glycan composition and relative distribution thereof was analyzed using the Rapifluor MS N-Glycan Kit purchased from Waters, using the manufacturer's instructions. It comprises denaturation and release of N-linked glycans by PNGase F from Protein A purified material. The released glycans are then labeled with the proprietary Rapifluor label, which contains a fluorescent moiety and a proton capturing moiety. […]

CHO cells = experiment: Citrulline concentration in culture medium during fermentation (UPLC-MS); assay type: in vitro ADME, Chinese hamster; conditions: cell line C69, stirred tank reactor, 10 g/l citrulline, days 8, 11, 13, 14
Description: Additional samples of approximately 30 mL were collected on days 6, 10 and 14, centrifuged and stored in −80° C. for product quality analysis. For the experiments with cell line C69 samples were also taken to determine the concentration of citrulline at different time points (days 8, 11, 13 and 14) during the bioreactor run.
To determine if citulline can be metabolised by CHO cells clarified samples were taken from the stirred tank reactor run with clone C69. Quantification of the concentration of citrulline during the culture was standardized using a 10 g/l citulline solution in WFI and the PolCHO medium was used as a negative control.
About 1 mL of culture medium was centrifuged in an Eppendorf centrifuge at 15000 rpm and at 4° C. for 10 minutes. […]
Using reference sample, the molecular mass of citrulline was confirmed by UPLC-MS to be 175.08 Da. The concentration of citrulline in the reference sample was 55.84 mM as determined by qNMR. The citrulline concentrations in culture medium samples of days 8, 11, 13 and 14 were determined by UPLC-MS analysis after appropriate dilution of the samples and by using external calibration lines prepared using the reference sample. No citrulline was detected in POLCHO medium (see FIG. 11).

Compound: NC(=O)NCCC[C@H](N)C(=O)O [citrulline]
- basic peaks of ustekinumab ([1]; 12 g L^-1 citrulline, day 14, control 11%): 22%
- acidic 2 peaks of ustekinumab ([1]; increasing concentrations of citrulline (5, 8, 12 g/l), day 14, vs control): decreased dose-dependently
- sum of acidic peaks of natalizumab [2]: decreased dose-dependently
- sum of basic peaks of natalizumab [2]: increased dose-dependently
- diameter of the cells [3]: increases
- specific production rate Qp for ustekinumab [4]: increases
- specific production rate Qp for omalizumab [5]: same increase
- G0F, G1F, G1'F, G2F and sum of sialylated species [6]: no differences
- concentration of citrulline during the fermentation (CHO cells): does not change significantly

Reference: US12043845B2, “Methods of cell culture” (Polpharma Biologics S.A., priority 2017, dated 2024)
